# How the values were obtained:
# Experiment in all cases: MIC by agar dilution, single strains
# Format in all cases: cell-based
# [1] = system: Staphylococcus aureus NCTC 6571; conditions: NCTC6571, 22 hours of incubation, read-out: Minimum inhibitory concentration (MIC)
# Protocol: (§1) Determining the minimum inhibitory concentrations (MIC). All the MICs were determined using an agar dilution method. This required use of a medium without a defined antagonist (peptone-free), prepared as described previously with the inclusion of 2% horse blood lysed with saponin, 25.0 μg/mL of NAD and 25.0 μg/mL of hemin [17]. The compounds tested were dissolved in sterile deionised water and incorporated into the agar medium in a concentration range of 0.0031 to 8.0 μg/mL (0.016 to 32 μg/mL for gram-positive bacteria). All the isolates were prepared at a density equivalent to 0.5 McFarland units in sterile deionised water using a densitometer (approximately 1.5×10^8 CFU/mL), and then diluted to 1 for 15. An aliquot of 1 μL of each diluted suspension was then placed onto plates with a multispot inoculator to give the final recommended inoculation of 10 000 CFU/spot. The MICs of fosfomycin were determined by the same method, except that the IsoSensitest medium (Oxoid, Basingstoke, United Kingdom) was used, plus 25.0 μg/mL of glucose-6-phosphate (Sigma, Poole, United Kingdom) and an extended range of fosfomycin concentrations. All the dishes (including the antimicrobial-free controls) were incubated for 22 hours at 37° C. All the tests were performed on at least two independent replicates in order to examine the reproducibility.
# [2] = system: Enterococcus faecium NCTC 7171; conditions: NCTC7171, 22 hours of incubation, read-out: Minimum inhibitory concentration (MIC)
# Protocol: as §1
# [3] = system: Enterobacter cloacae NCTC 11936; conditions: NCTC11936, 22 hours of incubation, read-out: Minimum inhibitory concentration (MIC)
# Protocol: as §1
# [4] = system: Escherichia coli NCTC 12241; conditions: NCTC12241, 22 hours of incubation, read-out: Minimum inhibitory concentration (MIC)
# Protocol: as §1
# [5] = system: Serratia marcescens NCTC 10211; conditions: NCTC10211, 22 hours of incubation, read-out: Minimum inhibitory concentration (MIC)
# Protocol: as §1
# [6] = system: Salmonella typhimurium NCTC 74; conditions: Salmonella enterica, 22 hours of incubation, read-out: Minimum inhibitory concentration (MIC)
# Protocol: as §1
# [7] = system: Enterococcus faecalis NCTC 775; conditions: NCTC775, 22 hours of incubation, read-out: Minimum inhibitory concentration (MIC)
# Protocol: as §1
# [8] = system: Yersinia enterocolitica NCTC 11176; conditions: NCTC11176, 22 hours of incubation, read-out: Minimum inhibitory concentration (MIC)
# Protocol: as §1
# [9] = system: Staphylococci epidermidis NCTC 11047; conditions: 22 hours of incubation, read-out: Minimum inhibitory concentration (MIC)
# Protocol: as §1
# [10] = system: Pseudomonas aeruginosa NCTC 10662; conditions: NCTC10662, 22 hours of incubation, read-out: Minimum inhibitory concentration (MIC)
# Protocol: as §1
# [11] = system: Salmonella enteritidis NCTC 6676; conditions: Salmonella enterica, 22 hours of incubation, read-out: Minimum inhibitory concentration (MIC)
# Protocol: as §1
# [12] = system: Burkholderia cepacia ATCC 25416; conditions: ATCC25416, 22 hours of incubation, read-out: Minimum inhibitory concentration (MIC)
# Protocol: as §1
# [13] = system: Providencia rettgeri NCTC 7475; conditions: NCTC7475, 22 hours of incubation, read-out: Minimum inhibitory concentration (MIC)
# Protocol: as §1
# [14] = system: Escherichia coli NCTC 10418; conditions: NCTC10418, 22 hours of incubation, read-out: Minimum inhibitory concentration (MIC)
# Protocol: as §1
# [15] = system: Listeria monocytogenes NCTC 11994; conditions: NCTC11994, 22 hours of incubation, read-out: Minimum inhibitory concentration (MIC)
# Protocol: as §1
# [16] = system: Acinetobacter baumannii ATCC 19606; conditions: ATCC19606, 22 hours of incubation, read-out: Minimum inhibitory concentration (MIC)
# Protocol: as §1
# [17] = system: Staphylococcus aureus NCTC 11939 (SARM); conditions: NCTC11939, 22 hours of incubation, read-out: Minimum inhibitory concentration (MIC)
# Protocol: as §1
# [18] = system: Klebsiella pneumoniae NCTC 9528; conditions: NCTC9528, 22 hours of incubation, read-out: Minimum inhibitory concentration (MIC)
# Protocol: as §1
smiles,measurement,setting,value
"CSCC[C@H](N)C(=O)N[C@@H](C)C(=O)NC(C)P(=O)(O)O (stereo partly drawn) [compound J, L-methionyl-L-alanyl-D/L fosfalin]",MIC,[1],1 µg/mL
same,MIC,[2],4 µg/mL
same,MIC,[3],> 8 µg/mL
same,MIC,[4],2 µg/mL
same,MIC,[5],0.5 µg/mL
same,MIC,[6],> 8 µg/mL
same,MIC,[7],0.125 µg/mL
same,MIC,[8],0.5 µg/mL
same,MIC,[9],2 µg/mL
same,MIC,[10],> 8 µg/mL
same,MIC,[11],> 8 µg/mL
same,MIC,[12],> 8 µg/mL
same,MIC,[13],> 8 µg/mL
same,MIC,[14],2 µg/mL
same,MIC,[15],> 8 µg/mL
same,MIC,[16],> 8 µg/mL
same,MIC,[17],> 8 µg/mL
same,MIC,[18],0.5 µg/mL
